For test [1], the target named is T1, full length Keap1 protein / full length NRF2 protein (Homo sapiens, UniProt Q14145).
T1 construct: full length NRF2 protein and full length Keap1 protein (Keap1 exists a dimer) are used; His
The test is described as follows: NRF2-Keap1 TR-FRET Assay. It is filed as binding. Particulars: 25 nM Keap1-FlagHis and 50 nM biotin-NRF2 added. The method, boiled down: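 Full-length Keap1-FlagHis preincubated with compound 2.25 h at 37 °C, then biotin-NRF2 added for 1.25 h at 4 °C, in Tris pH 8.0 with MgCl2, NaCl, BSA, DTT, CHAPS. TR-FRET 665/615 nm ratio normalised to with- and without-protein 1% DMSO controls; pIC50 from four-parameter fit.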

The target in test [2] is T1, full length Keap1 protein / full length NRF2 protein. The experiment in a line: NRF2-Keap1 TR-FRET Low Protein Assay. In kind it is binding. The conditions noted are these: 1.25 nM Keap1 FlagHis and 2.5 nM biotin-NRF2 added. The procedure, abridged: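 Flag-tagged full-length Keap1 was preincubated with compound (3-fold series) for 2.25 h at 37 °C in Tris pH 8.0/MgCl2/NaCl/BSA/DTT/CHAPS. Biotin-Avi-NRF2 (added at 2.5 nM) was then bound for 1.25 h at 4 °C. Eu-streptavidin/anti-Flag-APC TR-FRET (665/615 nm) was read after 1 h at RT, and pIC50 came from a four-parameter fit.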
For orientation: TR-FRET usually uses a lanthanide donor and a delayed reading to cut background.

The values that follow come from patent US10364256B2 (GlaxoSmithKline Intellectual Property Development Limited, priority 2015, dated 2019).

T1 sequence (Q14145 whole entry): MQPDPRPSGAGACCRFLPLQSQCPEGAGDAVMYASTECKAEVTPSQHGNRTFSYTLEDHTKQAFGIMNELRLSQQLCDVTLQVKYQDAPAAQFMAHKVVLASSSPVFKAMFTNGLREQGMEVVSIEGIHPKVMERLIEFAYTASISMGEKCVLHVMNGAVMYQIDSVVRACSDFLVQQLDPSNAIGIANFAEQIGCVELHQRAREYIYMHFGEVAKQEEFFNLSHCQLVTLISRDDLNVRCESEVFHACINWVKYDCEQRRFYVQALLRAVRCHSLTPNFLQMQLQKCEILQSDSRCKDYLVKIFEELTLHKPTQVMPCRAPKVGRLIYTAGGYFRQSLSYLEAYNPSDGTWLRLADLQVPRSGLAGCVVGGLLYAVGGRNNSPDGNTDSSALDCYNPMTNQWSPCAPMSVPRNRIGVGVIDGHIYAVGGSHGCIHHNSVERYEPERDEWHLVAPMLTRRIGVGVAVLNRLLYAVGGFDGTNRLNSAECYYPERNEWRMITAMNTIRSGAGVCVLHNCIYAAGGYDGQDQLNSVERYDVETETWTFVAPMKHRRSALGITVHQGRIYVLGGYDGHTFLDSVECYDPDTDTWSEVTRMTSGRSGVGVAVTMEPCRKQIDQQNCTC

As usually defined, the IC50 is the concentration needed to halve the response being measured. Low readings indicate inhibition by little substance, high ones a need for much substance. On to `CCC[C@@H]1CCCCN1C(=O)c1cccc(-c2cc(Cl)cc(-n3ncc(C(=O)O)c3C3CC3c3cn(C)nn3)c2)c1` (stereo partly drawn) [Example 160, 1-(5-Chloro-3′-((R)-2-propylpiperidine-1-carbonyl)-[1,1′-biphenyl]-3-yl)-5-(2-(1-methyl-1H-1,2,3-triazol-4-yl)cyclopropyl)-1H-pyrazole-4-carboxylic Acid Compound with 2,2,2-trifluoroacetic Acid (1:1)], for which the IC50 was 10 to 100 nM in test [1] and below 10 nM in test [2].
The matching figures for `CC(CC1CCCCC1)Oc1cccc(-c2cccc(-n3ncc(C(=O)O)c3C3CC3)c2)c1` (stereo not shown) [Example 161, 1-(3′-((1-Cyclohexylpropan-2-yl)oxy)-[1,1′-biphenyl]-3-yl)-5-cyclopropyl-1H-pyrazole-4-carboxylic Acid]: 10000 to 100000 nM and 1000 to 10000 nM.
With `CC(Oc1cccc(-c2cccc(-n3ncc(C(=O)O)c3[C@@H]3C[C@H]3c3cn(C)nn3)c2)c1)C1CCCCC1` (stereo partly drawn) [Example 163, 1-(3′-(1-Cyclohexylethoxy)-[1,1′-biphenyl]-3-yl)-5-((1R,2R)-2-(1-methyl-1H-1,2,3-triazol-4-yl)cyclopropyl)-1H-pyrazole-4-carboxylic acid], the IC50 in test [1] was in the range of 1000 to 10000 nM; in test [2] it was 100 to 1000 nM.
Turning to `Cn1cc(C2CC2c2c(C(=O)O)cnn2-c2cccc(-c3cccc(OCC4CCCCC4)c3)c2)nn1` (stereo not shown) [Example 164, 1-(3′-(Cyclohexylmethoxy)-[1,1′-biphenyl]-3-yl)-5-(2-(1-methyl-1H-1,2,3-triazol-4-yl)cyclopropyl)-1H-pyrazole-4-carboxylic acid], the results for the IC50 in test [1] and in test [2] were 100 to 1000 nM and 10 to 100 nM, respectively.
The corresponding values for `CC(Oc1cccc(-c2cccc(-n3ncc(C(=O)O)c3[C@H]3C[C@@H]3c3cn(C)nn3)c2)c1)C1CCCCC1` (stereo partly drawn) [Example 165, 1-(3′-(1-Cyclohexylethoxy)-[1,1′-biphenyl]-3-yl)-5-((1S,2S)-2-(1-methyl-1H-1,2,3-triazol-4-yl)cyclopropyl)-1H-pyrazole-4-carboxylic acid] are 10 to 100 nM and below 10 nM.
Consider `Cn1cc(C2CC2c2c(C(=O)O)cnn2-c2cccc(-c3cccc(OCC4CCN(C(=O)OC(C)(C)C)CC4)c3)c2)nn1` (stereo not shown) [Example 167, 1-(3′-((1-(tert-Butoxycarbonyl)piperidin-4-yl)methoxy)-[1,1′-biphenyl]-3-yl)-5-(2-(1-methyl-1H-1,2,3-triazol-4-yl)cyclopropyl)-1H-pyrazole-4-carboxylic acid], for which the IC50 in test [1] fell in the range of 100 to 1000 nM; in test [2] it was 10 to 100 nM.
The matching figures for `Cn1cc([C@@H]2C[C@H]2c2c(C(=O)O)cnn2-c2cccc(-c3cccc(OCC4CCCCC4)c3)c2)nn1` [Example 171, 1-(3′-(Cyclohexylmethoxy)-[1,1′-biphenyl]-3-yl)-5-((1R,2R)-2-(1-methyl-1H-1,2,3-triazol-4-yl)cyclopropyl)-1H-pyrazole-4-carboxylic acid]: 100 to 1000 nM and 10 to 100 nM.
The corresponding values for `Cn1cc(C2CC2c2c(C(=O)O)cnn2-c2cccc(-c3cccc(SCC4CCCCC4)c3)c2)nn1` (stereo not shown) [Example 179, 1-(3′-((Cyclohexylmethyl)thio)-[1,1′-biphenyl]-3-yl)-5-(2-(1-methyl-1H-1,2,3-triazol-4-yl)cyclopropyl)-1H-pyrazole-4-carboxylic acid] are 100 to 1000 nM and 10 to 100 nM.
As to `COC(c1cccc(-c2cccc(-n3ncc(C(=O)O)c3C3CC3c3cn(C)nn3)c2)c1)C1CCCC1` (stereo not shown) [Example 183, 1-(3′-(Cyclopentyl(methoxy)methyl)-[1,1′-biphenyl]-3-yl)-5-(2-(1-methyl-1H-1,2,3-triazol-4-yl)cyclopropyl)-1H-pyrazole-4-carboxylic acid], the IC50 in test [1] fell in the range of 100 to 1000 nM; in test [2], 10 to 100 nM.
Turning to `Cc1nn(-c2cccc(-c3cccc(OCC4CCCCC4)c3)c2)c(C2CC2c2cn(C)nn2)c1C(=O)O` (stereo not shown) [Example 188, 1-(3′-(cyclohexylmethoxy)-[1,1′-biphenyl]-3-yl)-3-methyl-5-(2-(1-methyl-1H-1,2,3-triazol-4-yl)cyclopropyl)-1H-pyrazole-4-carboxylic Acid], the IC50 in test [1] and in test [2] was 1000 to 10000 nM each time.
For `CCC[C@@H]1CCCCN1C(=O)c1cccc(-c2cccc(-n3ncc(C(=O)O)c3C3CC3c3cn(C)nn3)n2)c1` (stereo partly drawn) [Example 196, 5-(2-(1-Methyl-1H-1,2,3-triazol-4-yl)cyclopropyl)-1-(6-(3-((R)-2-propylpiperidine-1-carbonyl)phenyl)pyridin-2-yl)-1H-pyrazole-4-carboxylic Acid], the half-maximal inhibitory concentration (IC50) was 10 to 100 nM in test [1] and below 10 nM in test [2].
The corresponding values for `CCC[C@@H]1CCCCN1C(=O)c1cncc(-c2cccc(-n3ncc(C(=O)O)c3C3CC3c3cn(C)nn3)c2)c1` (stereo partly drawn) [Example 197, 5-(2-(1-Methyl-1H-1,2,3-triazol-4-yl)cyclopropyl)-1-(3-(5-((R)-2-propylpiperidine-1-carbonyl)pyridin-3-yl)phenyl)-1H-pyrazole-4-carboxylic acid] are 10 to 100 nM and below 10 nM.
The matching figures for `CCC[C@@H]1CCCCN1C(=O)c1cccc(-c2cccc(-n3nc(C)c(C(=O)O)c3C3CC3c3cn(C)nn3)c2)c1` (stereo partly drawn) [Example 202, 3-Methyl-5-(2-(1-methyl-1H-1,2,3-triazol-4-yl)cyclopropyl)-1-(3′-((R)-2-propylpiperidine-1-carbonyl)-[1,1′-biphenyl]-3-yl)-1H-pyrazole-4-carboxylic acid]: 10 to 100 nM and below 10 nM.
The matching figures for `CC1(C)CCc2cnn(-c3cccc(-c4cccc(-n5ncc(C(=O)O)c5C(F)(F)F)n4)c3)c21` [Example 204, 1-(6-(3-(6,6-Dimethyl-5,6-dihydrocyclopenta[c]pyrazol-1(4H)-yl)phenyl)pyridin-2-yl)-5-(trifluoromethyl)-1H-pyrazole-4-carboxylic Acid]: 1000 to 10000 nM and 100 to 1000 nM.
Turning to `CCCC1(C)CCc2cnn(-c3cccc(-c4cccc(-n5ncc(C(=O)O)c5C5CC5)c4)c3)c21` (stereo not shown) [Example 205, 5-Cyclopropyl-1-(3′-(6-methyl-6-propyl-5,6-dihydrocyclopenta[c]pyrazol-1(4H)-yl)-[1,1′-biphenyl]-3-yl)-1H-pyrazole-4-carboxylic Acid], the IC50 was in the range of 100 to 1000 nM in test [1] and 10 to 100 nM in test [2].
Consider `CCCCC1CCc2cnn(-c3cccc(-c4cccc(-n5ncc(C(=O)O)c5C5CC5)c4)c3)c21` (stereo not shown) [Example 206, 1-(3′-(6-Butyl-5,6-dihydrocyclopenta[c]pyrazol-1(4H)-yl)-[1,1′-biphenyl]-3-yl)-5-cyclopropyl-1H-pyrazole-4-carboxylic Acid], for which the IC50 lay within 1000 to 10000 nM in test [1] and 100 to 1000 nM in test [2].
The corresponding values for `CCc1nc(-c2cccc(-c3cccc(-n4ncc(C(=O)O)c4C4CC4)c3)c2)no1` [Example 209, 5-Cyclopropyl-1-(3′-(5-ethyl-1,2,4-oxadiazol-3-yl)-[1,1′-biphenyl]-3-yl)-1H-pyrazole-4-carboxylic Acid] are 10000 to 100000 nM and 1000 to 10000 nM.
The corresponding values for `Cc1nnc(-c2cccc(-c3cccc(-n4ncc(C(=O)O)c4C4CC4)c3)c2)o1` [Example 210, 5S-Cyclopropyl-1-(3′-(5-methyl-1,3,4-oxadiazol-2-yl)-[1,1′-biphenyl]-3-yl)-1H-pyrazole-4-carboxylic acid] are above 100000 nM and 10000 to 100000 nM.
As to `Cn1cc(C2CC2c2c(C(=O)O)cnn2-c2cccc(-c3cccc(-n4ncc5c4C(C)(C)CC5)c3)c2)nn1` (stereo not shown) [Example 212, 1-(3′-(6,6-Dimethyl-5,6-dihydrocyclopenta[c]pyrazol-1(4H)-yl)-[1,1′-biphenyl]-3-yl)-5-(2-(1-methyl-1H-1,2,3-triazol-4-yl)cyclopropyl)-1H-pyrazole-4-carboxylic Acid], the IC50 in test [1] was 10 to 100 nM; in test [2], below 10 nM.
The matching figures for `CCC[C@@H]1CCCCN1C(=O)c1cccc(-c2cccc(-n3ncc(C(=O)O)c3C3CC3c3cnn(C)c3)c2)c1` (stereo partly drawn) [Example 213, 5-(2-(1-Methyl-1H-pyrazol-4-yl)cyclopropyl)-1-(3′-((R)-2-propylpiperidine-1-carbonyl)-[1,1′-biphenyl]-3-yl)-1H-pyrazole-4-carboxylic Acid]: 10 to 100 nM and below 10 nM.
As to `CCC[C@@H]1CCCCN1C(=O)c1cccc(-c2cccc(-n3ncc(C(=O)O)c3C3CC3c3cnn(C)c3)c2)c1F` (stereo partly drawn) [Example 214, 1-(2′-Fluoro-3′-((R)-2-propylpiperidine-1-carbonyl)-[1,1′-biphenyl]-3-yl)-5-(2-(1-methyl-1H-pyrazol-4-yl)cyclopropyl)-1H-pyrazole-4-carboxylic Acid], the values for the IC50 in test [1] and in test [2] were 10 to 100 nM and below 10 nM, respectively.
In the case of `Cn1cc(C2CC2c2c(C(=O)O)cnn2-c2cccc(-c3cccc(C(=O)CC4CCCCC4)c3)c2)nn1` (stereo not shown) [Example 215, 1-(3′-(2-Cyclohexylacetyl)-[1,1′-biphenyl]-3-yl)-5-(2-(1-methyl-1H-1,2,3-triazol-4-yl)cyclopropyl)-1H-pyrazole-4-carboxylic Acid], the results for the half-inhibitory concentration (IC50) in test [1] and in test [2] were 100 to 1000 nM and 10 to 100 nM, respectively.
The matching figures for `COC(CC1CCCCC1)c1cccc(-c2cccc(-n3ncc(C(=O)O)c3C3CC3c3cn(C)nn3)c2)c1` (stereo not shown) [Example 216, 1-(3′-(2-Cyclohexyl-1-methoxyethyl)-[1,1′-biphenyl]-3-yl)-5-(2-(1-methyl-1H-1,2,3-triazol-4-yl)cyclopropyl)-1H-pyrazole-4-carboxylic Acid]: 100 to 1000 nM and 10 to 100 nM.
